Measured values reported in ChEMBL document CHEMBL4257563, “Recent Advances in the Medicinal Chemistry of Liver X Receptors” (J Med Chem, 2018).
Substitutions are numbered along the chain they refer to. Each block holds one compound with its values, some of them ahead of it.

Assays:
[1] = tested on: Cynomolgus monkey; experiment: Increase in plasma LDL cholesterol in orally dosed cynomolgus monkey; type: functional, Macaca fascicularis
[2] = tested on: Cynomolgus monkey; experiment: Increase in plasma triglycerides in orally dosed cynomolgus monkey; type: functional, Macaca fascicularis
[3] = Tmax in cynomolgus monkey at 1 mg/kg, po by LC-MS analysis; type: ADME, organism-based, Macaca fascicularis; settings: in vivo
[4] = tested on: Cynomolgus monkey; experiment: In vivo transactivation in po dosed cynomolgus monkey blood assessed as induction ABCG1 mRNA expression after 24 hrs by PCR analysis; type: functional, organism-based; settings: Macaca fascicularis
[5] = Cmax in cynomolgus monkey at 1 mg/kg, po by LC-MS analysis; type: ADME, organism-based, Macaca fascicularis; parameters: dose 1 mg/kg, route oral; settings: in vivo
[6] = Plasma concentration in cynomolgus monkey at 1 mg/kg, po after 48 hrs by LC-MS analysis; type: ADME, organism-based, Macaca fascicularis
[7] = tested on: Cynomolgus monkey; experiment: In vivo transactivation of LXRbeta in cynomolgus monkey assessed as induction of ABCG1 expression at 1 mg/kg, po by PCR analysis; type: functional, Macaca fascicularis
[8] = biological target: T1, Oxysterols receptor LXR-beta (Homo sapiens, UniProt P55055); experiment: Agonist activity at human full length LXRbeta expressed in African green monkey CV-1 cells co-expressing human pCMX/RXRalpha after 20 hrs by luciferase reporter gene assay; type: cell-based
T1 sequence (P55055 whole entry): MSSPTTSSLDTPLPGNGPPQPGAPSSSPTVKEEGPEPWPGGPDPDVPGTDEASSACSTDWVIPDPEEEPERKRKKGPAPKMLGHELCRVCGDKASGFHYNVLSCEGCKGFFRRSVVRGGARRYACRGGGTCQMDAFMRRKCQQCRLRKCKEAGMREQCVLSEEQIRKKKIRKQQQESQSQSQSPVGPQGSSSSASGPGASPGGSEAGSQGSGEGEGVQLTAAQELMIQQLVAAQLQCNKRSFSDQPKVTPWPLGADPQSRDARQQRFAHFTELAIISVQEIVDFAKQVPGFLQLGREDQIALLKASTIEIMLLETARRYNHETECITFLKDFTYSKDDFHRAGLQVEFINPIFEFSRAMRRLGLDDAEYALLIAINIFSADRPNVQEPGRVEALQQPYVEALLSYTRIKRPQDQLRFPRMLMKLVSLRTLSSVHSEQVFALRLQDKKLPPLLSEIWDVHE

[9] = biological target: T2, Oxysterols receptor LXR-alpha (Homo sapiens, UniProt Q13133); experiment: Agonist activity at human LXRalpha expressed in HEK293 cells after 24 hrs by One-Glo luciferase reporter gene assay; type: cell-based
T2 sequence (Q13133 whole entry): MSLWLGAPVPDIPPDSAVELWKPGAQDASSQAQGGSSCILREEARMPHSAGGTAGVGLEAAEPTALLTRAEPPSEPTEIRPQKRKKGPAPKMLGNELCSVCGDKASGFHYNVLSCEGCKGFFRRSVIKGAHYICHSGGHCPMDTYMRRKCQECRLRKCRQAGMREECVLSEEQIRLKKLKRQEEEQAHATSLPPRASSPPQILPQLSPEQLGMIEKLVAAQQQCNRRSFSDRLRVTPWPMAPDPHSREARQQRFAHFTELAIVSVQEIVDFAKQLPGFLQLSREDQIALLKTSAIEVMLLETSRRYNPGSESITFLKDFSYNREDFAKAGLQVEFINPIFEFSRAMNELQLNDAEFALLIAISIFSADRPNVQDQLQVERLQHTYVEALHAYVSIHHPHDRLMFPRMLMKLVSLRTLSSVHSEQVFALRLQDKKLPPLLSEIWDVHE

[10] = biological target: T3, Oxysterols receptor LXR-alpha (Homo sapiens) (UniProt Q13133); experiment: Agonist activity at human LXRalpha expressed in HEK293 cells after 24 hrs by One-Glo luciferase reporter gene assay relative to TO901317; type: cell-based
T3 sequence (whole entry): T2 sequence (Q13133 whole entry)

[11] = tested on: T4, Oxysterols receptor LXR-alpha (Homo sapiens), Q13133 [R305G]; experiment: Agonist activity at human GAL-tagged LXRbeta-LBD R305G mutant transfected in HEK293T cells assessed as co-activator recruitment using TRAP220 as co-activator by TR-FRET assay relative to TO901317; type: cell-based
T4 sequence (whole entry): T2 sequence (Q13133 whole entry) with R305G

[12] = biological target: T2, Oxysterols receptor LXR-alpha; experiment: Agonist activity at human LXRalpha-LBD (182 to 447 amino acids) expressed in HEK293T cells by luciferase reporter gene assay; type: cell-based
[13] = biological target: T1, Oxysterols receptor LXR-beta; experiment: Agonist activity at human LXRbeta-LBD (196 to 461 amino acids) expressed in HEK293T cells by luciferase reporter gene assay; type: cell-based
[14] = biological target: T5, Oxysterols receptor LXR-beta (Homo sapiens) (UniProt P55055); experiment: Agonist activity at human GAL-tagged LXRbeta-LBD F271A mutant transfected in HEK293T cells assessed as co-activator recruitment using D22 as co-activator by TR-FRET assay relative to TO901317; type: cell-based
T5 sequence (whole entry): T1 sequence (P55055 whole entry)

[15] = biological target: T5, Oxysterols receptor LXR-beta (Homo sapiens); experiment: Agonist activity at human GAL-tagged LXRbeta-LBD F271A mutant transfected in HEK293T cells assessed as co-repressor recruitment using SMRT as co-repressor by TR-FRET assay relative to TO901317; type: cell-based
[16] = tested on: T4, Oxysterols receptor LXR-alpha (Homo sapiens), Q13133 [R305G]; experiment: Agonist activity at human GAL-tagged LXRbeta-LBD R305G mutant transfected in HEK293T cells assessed as co-activator recruitment using NCoR as co-repressor by TR-FRET assay relative to TO901317; type: cell-based
[17] = biological target: T1, Oxysterols receptor LXR-beta; experiment: Inverse agonist activity at LXRbeta (unknown origin) expressed in HEK293 cells 24 hrs by Dual-Glo luciferase assay; type: cell-based
[18] = biological target: T2, Oxysterols receptor LXR-alpha; experiment: Inverse agonist activity at LXRalpha (unknown origin) expressed in HEK293 cells 24 hrs by Dual-Glo luciferase assay; type: cell-based
[19] = tested on: Mus musculus; experiment: Reduction in hepatic collagen deposition in mouse at 30 mg/kg, ip for 30 days; type: functional; settings: 720 h
[20] = biological target: T1, Oxysterols receptor LXR-beta; experiment: Agonist activity at GAL4-tagged human LXRbeta LBD expressed in HEK293T cells after 12 hrs by luciferase reporter gene assay; type: cell-based
[21] = organism: Homo sapiens; experiment: Toxicity in human assessed as decrease in mean neutrophil count at 15 mg after 7 days relative to baseline control; type: organism-based; parameters: scale not given: the % may be the effect or the level left; settings: in vivo, 168 h

Tmax [3]: 2 h
EC50 [4]: 610 nM
Cmax [5]: 2230 nM
concentration at 48 h [6]: 154 nM
SMILES: CC(C)(O)c1cn(-c2ccc(-c3cccc(S(C)(=O)=O)c3)cc2)c(C(C)(C)c2ccccc2Cl)n1 [BMS-779788]
fold change (FC) [1]: 12
fold change (FC) [2]: 29
fold change (FC) [7]: 4.7

EC50 [8]: 108 nM
SMILES: CS(=O)(=O)c1cccc(-c2ccc(-c3cc(C(F)(F)F)nn3-c3ccccc3Cl)s2)c1

SMILES: C[C@H](CCC(=O)N(C)C)[C@H]1CC[C@H]2[C@@H]3CC=C4C[C@@H](O)CC[C@]4(C)[C@H]3CC[C@]12C
EC50 [9]: 422 nM
Emax [10]: 45%

Activity [11]: 18%
EC50 [12]: 150 nM
EC50 [13]: 530 nM
Activity [14]: 13%
Activity [15]: 23%
Activity [16]: 31%
SMILES: CN(CC(=O)Nc1ccc(F)c(F)c1F)C(=O)c1ccc2c(c1)OCCO2

IC50 [17]: 43 nM
IC50 [18]: 214 nM
SMILES: CCOC(=O)c1ccc(CN(Cc2ccc(-c3cccc(S(C)(=O)=O)c3)cc2)S(=O)(=O)c2c(C)cc(C)cc2C)o1
inhibition in vivo at 30 mg/kg [19]: 90%

SMILES: COC1CCN(C(=O)CC[C@@H](C)[C@H]2CC[C@H]3[C@@H]4CC=C5C[C@@H](O)CC[C@]5(C)[C@H]4CC[C@]23C)CC1
EC50 [9]: 230 nM
Emax [10]: 58%

EC50 [20]: 720 nM
SMILES: Cc1c(C(=O)OC(C)C(=O)N2CCNC2=O)oc2cc(F)ccc12 (stereo not drawn)

SMILES: CC(C)(O)c1cn(-c2ccc(-c3cc(F)c(CO)c(S(C)(=O)=O)c3)cc2F)c(C(C)(C)c2c(Cl)cccc2Cl)n1 [BMS-852927]
Activity [21]: 47%
